ChEMBL document CHEMBL1201862, “PubChem BioAssay data set” (2004)
Counter-ions that a name gives are not always drawn. Calls of active or inactive are those of the source.

How the values were obtained:
[1] = molecular target: Voltage-dependent T-type calcium channel subunit alpha-1H (Homo sapiens, UniProt O95180); assay type: functional;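 further: channel activity triggered by adding a high calcium stimulation buffer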
[2] = THP-1 cell cytotoxicity, dose response, cytotoxicity control for non-replicating M. tuberculosis project (AID 489025); assay type: functional
cells [3] = assay type: functional
Vero [4] = test: cells; assay type: functional; settings: Chlorocebus sabaeus
[5] = viability of uninfected HEp-2 cells – cell-based, HTS, cytotoxicity control for RSV inhibitor project, dose response (AID 2410); assay type: functional; settings: human respiratory syncytial virus
Vero [6] = test: cells; assay type: functional, cell-based; settings: Chlorocebus sabaeus
cells [7] = test: cells
[8] = HEK-293T cell viability reduction – luminescence, B-cell screen hits, cytotoxicity control for BCR NF-kB inhibitor project, dose response (AID 489021); assay type: functional, cell-based;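 further: HEK-293T cells carrying an NF-kB luciferase reporter; cells exposed to compound for about 14 hours before viability readout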
[9] = molecular target: T1, Short transient receptor potential channel 4 (Mus musculus, UniProt Q9QUQ5); test: block of DAMGO-driven TRPC4 calcium entry – cell-based, HEK293 TRPC4/mu-opioid, Fluo-4 calcium, dose response (AID 434942); assay type: functional;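 further: potency of inhibitors blocking the TRPC4 calcium response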
T1 sequence (Q9QUQ5 whole entry): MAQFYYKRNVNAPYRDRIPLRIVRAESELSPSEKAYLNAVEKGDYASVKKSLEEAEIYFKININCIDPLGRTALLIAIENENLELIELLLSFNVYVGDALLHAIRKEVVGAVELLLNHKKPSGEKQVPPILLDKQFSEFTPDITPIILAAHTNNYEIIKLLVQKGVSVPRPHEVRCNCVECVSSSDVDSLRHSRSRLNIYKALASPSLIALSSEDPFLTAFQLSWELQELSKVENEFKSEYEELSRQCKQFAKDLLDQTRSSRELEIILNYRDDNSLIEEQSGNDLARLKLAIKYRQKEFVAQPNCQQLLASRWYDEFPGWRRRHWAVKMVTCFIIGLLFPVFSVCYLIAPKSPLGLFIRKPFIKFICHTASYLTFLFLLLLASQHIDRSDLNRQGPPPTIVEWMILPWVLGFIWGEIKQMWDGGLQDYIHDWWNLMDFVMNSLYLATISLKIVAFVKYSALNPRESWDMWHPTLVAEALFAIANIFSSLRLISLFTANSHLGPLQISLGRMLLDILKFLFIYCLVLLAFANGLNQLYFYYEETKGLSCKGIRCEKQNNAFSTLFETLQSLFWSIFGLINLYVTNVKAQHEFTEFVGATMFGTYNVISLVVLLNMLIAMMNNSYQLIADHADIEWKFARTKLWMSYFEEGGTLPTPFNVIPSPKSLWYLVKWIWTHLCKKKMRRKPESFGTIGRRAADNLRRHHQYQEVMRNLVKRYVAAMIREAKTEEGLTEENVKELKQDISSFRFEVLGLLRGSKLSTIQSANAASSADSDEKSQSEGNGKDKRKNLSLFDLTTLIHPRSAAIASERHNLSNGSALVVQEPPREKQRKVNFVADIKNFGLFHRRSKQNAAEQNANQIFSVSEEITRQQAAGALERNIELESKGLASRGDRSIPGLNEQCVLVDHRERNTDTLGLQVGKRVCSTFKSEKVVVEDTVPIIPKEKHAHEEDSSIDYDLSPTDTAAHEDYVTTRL

[10] = molecular target: Eukaryotic translation initiation factor 4E (Mus musculus, UniProt P63073); test: blockers of eIF4G binding by eIF4E – biochemical, TR-FRET, dose response (AID 855); assay type: functional;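 further: potency for disrupting eIF4E binding to eIF4GI seen as loss of FRET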
[11] = molecular target: T2, Replicative DNA helicase DnaB (Mycobacterium tuberculosis, UniProt P9WMR3); test: DnaB intein splicing inhibitors, dose response, biochemical, cell-free fluorescence (AID 449749); assay type: functional
T2 sequence (P9WMR3 whole entry): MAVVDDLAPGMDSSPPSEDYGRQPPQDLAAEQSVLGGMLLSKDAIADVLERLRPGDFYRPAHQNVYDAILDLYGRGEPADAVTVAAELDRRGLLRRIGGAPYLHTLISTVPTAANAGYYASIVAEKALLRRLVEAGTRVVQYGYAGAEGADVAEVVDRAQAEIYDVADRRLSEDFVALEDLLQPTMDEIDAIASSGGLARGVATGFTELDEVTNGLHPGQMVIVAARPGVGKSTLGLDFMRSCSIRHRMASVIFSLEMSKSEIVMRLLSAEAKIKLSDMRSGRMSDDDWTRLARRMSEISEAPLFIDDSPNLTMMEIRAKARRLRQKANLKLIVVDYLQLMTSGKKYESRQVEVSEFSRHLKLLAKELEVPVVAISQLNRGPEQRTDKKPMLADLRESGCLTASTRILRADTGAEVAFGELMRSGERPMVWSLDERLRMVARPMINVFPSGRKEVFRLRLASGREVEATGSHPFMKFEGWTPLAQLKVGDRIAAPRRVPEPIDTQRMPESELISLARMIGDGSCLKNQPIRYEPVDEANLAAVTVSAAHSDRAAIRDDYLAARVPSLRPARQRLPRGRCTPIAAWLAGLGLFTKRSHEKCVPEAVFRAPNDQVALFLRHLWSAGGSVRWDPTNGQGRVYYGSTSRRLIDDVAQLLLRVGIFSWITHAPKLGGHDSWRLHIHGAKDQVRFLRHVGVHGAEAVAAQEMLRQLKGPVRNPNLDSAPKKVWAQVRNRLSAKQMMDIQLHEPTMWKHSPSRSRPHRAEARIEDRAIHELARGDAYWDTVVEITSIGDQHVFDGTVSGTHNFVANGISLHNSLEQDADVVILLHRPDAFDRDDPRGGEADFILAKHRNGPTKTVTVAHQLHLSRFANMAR

Protein RecA = molecular target: T3, Protein RecA (Mycobacterium tuberculosis, UniProt P9WHJ3); test: Fluorescence Cell-Free Homogeneous Dose Retest to Identify Inhibitors of RecA-Intein Splicing Activity. [Related pubchem assays (depositor defined):AID2097, AID2223, AID489010, AID492950]; assay type: functional
T3 sequence (P9WHJ3 whole entry): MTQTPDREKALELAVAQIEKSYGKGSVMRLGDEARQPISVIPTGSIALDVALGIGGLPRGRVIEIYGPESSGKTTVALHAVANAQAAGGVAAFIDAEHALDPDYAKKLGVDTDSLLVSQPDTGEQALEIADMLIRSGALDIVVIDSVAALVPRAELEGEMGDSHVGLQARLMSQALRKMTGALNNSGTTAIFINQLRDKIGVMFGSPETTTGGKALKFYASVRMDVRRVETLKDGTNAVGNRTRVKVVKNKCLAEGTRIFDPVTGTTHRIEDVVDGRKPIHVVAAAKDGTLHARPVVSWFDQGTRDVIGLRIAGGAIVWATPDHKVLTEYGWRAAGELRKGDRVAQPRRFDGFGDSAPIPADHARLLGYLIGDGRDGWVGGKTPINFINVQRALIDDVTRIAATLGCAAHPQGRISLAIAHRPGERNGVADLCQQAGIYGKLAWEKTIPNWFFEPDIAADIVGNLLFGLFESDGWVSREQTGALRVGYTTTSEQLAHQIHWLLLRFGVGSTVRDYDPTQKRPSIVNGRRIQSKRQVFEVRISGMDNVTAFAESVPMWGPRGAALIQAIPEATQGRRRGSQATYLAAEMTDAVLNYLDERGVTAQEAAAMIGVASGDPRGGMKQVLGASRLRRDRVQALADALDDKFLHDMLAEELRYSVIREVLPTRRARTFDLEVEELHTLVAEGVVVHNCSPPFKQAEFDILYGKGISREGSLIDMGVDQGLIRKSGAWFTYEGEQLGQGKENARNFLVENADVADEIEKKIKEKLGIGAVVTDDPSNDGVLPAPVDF

[12] = molecular target: T4, Heat shock factor protein 1 (Mus musculus, UniProt P38532); test: decrease of HSF1-responsive luciferase luminescence – cell-based, NIH3T3, dose retest, confirmation (AID 2382); assay type: functional;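 further: NIH3T3 fibroblasts with HSF1-driven luciferase reporter stressed by proteasome inhibitor MG132; luminescence from HSF1-driven luciferase expression after 8 hours of MG132 stress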
T4 sequence (P38532 whole entry): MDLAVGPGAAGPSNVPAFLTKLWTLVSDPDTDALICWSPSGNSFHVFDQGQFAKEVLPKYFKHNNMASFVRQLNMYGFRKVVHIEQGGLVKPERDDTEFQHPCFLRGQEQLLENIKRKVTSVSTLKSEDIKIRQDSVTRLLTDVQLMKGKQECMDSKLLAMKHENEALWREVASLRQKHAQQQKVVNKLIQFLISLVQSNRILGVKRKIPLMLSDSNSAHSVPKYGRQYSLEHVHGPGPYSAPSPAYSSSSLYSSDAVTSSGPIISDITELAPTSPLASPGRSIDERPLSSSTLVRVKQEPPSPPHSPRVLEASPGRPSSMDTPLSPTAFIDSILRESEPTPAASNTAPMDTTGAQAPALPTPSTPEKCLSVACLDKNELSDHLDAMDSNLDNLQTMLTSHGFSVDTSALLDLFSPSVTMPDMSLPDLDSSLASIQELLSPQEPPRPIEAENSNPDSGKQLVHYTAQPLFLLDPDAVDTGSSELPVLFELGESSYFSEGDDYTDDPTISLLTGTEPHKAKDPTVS

[13] = molecular target: T5, Microphthalmia-associated transcription factor (Homo sapiens, UniProt O75030); test: reducers of TRPM1 reporter luminescence, concentration series – cell-based, SK-MEL-5, cherry-picked, set 3, MITF inhibitor project, dose response (AID 493073); assay type: functional;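 further: SK-MEL-5 melanoma cells with luciferase driven by the MITF target TRPM1 promoter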
T5 sequence (O75030 whole entry): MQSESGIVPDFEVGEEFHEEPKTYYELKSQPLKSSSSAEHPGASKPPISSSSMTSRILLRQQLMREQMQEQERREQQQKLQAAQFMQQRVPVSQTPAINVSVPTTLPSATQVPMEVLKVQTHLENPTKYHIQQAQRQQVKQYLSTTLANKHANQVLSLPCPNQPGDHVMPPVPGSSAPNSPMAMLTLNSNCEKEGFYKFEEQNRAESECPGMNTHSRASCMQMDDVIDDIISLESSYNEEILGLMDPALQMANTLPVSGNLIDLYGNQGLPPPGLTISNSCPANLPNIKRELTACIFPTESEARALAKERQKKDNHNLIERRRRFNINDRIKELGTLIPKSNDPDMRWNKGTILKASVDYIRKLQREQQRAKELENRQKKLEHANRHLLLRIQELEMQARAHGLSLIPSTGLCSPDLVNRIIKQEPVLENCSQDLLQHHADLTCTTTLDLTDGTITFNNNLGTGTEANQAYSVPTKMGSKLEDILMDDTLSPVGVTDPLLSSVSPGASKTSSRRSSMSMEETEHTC

Sequence of Voltage-dependent T-type calcium channel subunit alpha-1H (O95180 whole entry): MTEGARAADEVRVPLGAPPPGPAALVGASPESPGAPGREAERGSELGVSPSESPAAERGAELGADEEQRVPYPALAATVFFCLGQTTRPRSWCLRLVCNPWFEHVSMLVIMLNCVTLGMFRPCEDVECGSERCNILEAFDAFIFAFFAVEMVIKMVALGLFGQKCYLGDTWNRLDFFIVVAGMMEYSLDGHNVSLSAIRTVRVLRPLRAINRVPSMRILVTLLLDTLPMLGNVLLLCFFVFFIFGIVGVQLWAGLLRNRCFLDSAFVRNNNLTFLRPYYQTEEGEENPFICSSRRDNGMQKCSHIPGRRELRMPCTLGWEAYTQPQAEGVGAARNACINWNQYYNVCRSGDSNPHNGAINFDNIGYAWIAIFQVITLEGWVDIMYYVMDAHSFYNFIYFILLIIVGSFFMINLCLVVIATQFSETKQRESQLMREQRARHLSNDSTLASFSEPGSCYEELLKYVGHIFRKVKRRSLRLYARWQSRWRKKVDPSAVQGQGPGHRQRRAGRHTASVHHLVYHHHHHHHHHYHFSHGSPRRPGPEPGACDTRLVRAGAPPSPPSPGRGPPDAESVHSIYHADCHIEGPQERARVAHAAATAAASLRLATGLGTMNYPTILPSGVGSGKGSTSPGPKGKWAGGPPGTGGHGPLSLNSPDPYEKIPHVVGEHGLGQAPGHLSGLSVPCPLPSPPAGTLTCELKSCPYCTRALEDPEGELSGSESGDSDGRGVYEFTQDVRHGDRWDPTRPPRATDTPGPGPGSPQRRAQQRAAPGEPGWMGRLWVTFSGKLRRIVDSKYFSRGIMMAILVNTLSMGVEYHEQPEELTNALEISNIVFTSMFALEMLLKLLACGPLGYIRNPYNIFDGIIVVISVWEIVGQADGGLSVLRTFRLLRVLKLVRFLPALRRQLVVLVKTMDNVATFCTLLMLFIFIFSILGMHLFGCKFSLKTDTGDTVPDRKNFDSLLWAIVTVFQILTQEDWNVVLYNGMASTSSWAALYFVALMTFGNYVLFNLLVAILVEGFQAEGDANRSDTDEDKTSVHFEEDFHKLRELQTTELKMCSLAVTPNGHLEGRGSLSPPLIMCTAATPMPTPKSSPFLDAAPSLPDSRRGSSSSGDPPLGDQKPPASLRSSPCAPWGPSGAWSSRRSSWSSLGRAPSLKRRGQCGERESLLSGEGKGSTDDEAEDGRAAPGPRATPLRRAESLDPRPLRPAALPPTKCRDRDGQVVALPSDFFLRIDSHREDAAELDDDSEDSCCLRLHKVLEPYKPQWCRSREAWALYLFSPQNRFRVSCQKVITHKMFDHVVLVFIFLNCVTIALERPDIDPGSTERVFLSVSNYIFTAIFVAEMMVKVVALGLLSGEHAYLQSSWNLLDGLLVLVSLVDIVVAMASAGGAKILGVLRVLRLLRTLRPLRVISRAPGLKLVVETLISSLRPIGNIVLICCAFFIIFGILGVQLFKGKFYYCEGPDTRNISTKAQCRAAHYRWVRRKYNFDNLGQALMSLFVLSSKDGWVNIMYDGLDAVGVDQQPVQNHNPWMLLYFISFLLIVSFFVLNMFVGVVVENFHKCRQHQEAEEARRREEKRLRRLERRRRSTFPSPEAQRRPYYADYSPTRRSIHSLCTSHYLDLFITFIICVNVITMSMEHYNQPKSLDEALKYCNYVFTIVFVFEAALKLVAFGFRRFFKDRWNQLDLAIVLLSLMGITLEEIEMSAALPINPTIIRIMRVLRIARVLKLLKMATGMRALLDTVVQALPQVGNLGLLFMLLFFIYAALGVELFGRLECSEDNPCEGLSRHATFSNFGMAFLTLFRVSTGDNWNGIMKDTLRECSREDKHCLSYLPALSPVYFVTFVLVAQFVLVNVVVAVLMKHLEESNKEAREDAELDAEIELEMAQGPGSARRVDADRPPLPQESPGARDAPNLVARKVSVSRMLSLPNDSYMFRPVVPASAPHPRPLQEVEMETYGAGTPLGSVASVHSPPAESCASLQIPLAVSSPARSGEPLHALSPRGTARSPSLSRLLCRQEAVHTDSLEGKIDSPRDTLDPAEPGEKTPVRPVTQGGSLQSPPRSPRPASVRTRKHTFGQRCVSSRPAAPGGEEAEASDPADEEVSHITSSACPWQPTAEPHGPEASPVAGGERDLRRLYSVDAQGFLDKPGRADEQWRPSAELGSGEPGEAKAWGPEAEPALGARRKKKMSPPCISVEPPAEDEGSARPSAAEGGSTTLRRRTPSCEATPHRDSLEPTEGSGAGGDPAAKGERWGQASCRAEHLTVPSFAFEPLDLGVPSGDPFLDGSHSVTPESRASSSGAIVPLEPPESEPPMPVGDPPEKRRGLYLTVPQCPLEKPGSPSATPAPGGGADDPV
Sequence of Eukaryotic translation initiation factor 4E (P63073 whole entry): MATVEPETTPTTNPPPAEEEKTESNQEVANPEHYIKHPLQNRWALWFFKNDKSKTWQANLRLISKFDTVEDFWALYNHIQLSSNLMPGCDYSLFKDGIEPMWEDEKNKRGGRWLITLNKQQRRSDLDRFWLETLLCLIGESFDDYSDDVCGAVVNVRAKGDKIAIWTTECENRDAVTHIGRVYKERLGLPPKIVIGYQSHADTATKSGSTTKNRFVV

For O=C(Nc1ccc(F)cc1)c1cc(S(=O)(=O)Nc2ccc(F)cc2)cs1, the EC50 [1] was 2.88 µM (active).

For CN(C)CC/C=C1\c2cc(Cl)ccc2Sc2cc(F)c(F)cc21, the CC50 [2] was 38.8 µM (active), the IC50 (cells [3]) was 18.2 µM (active) and the CC50 (Vero [4]) was > 25 µM (active).

In the case of C#CCSc1nnc(-c2ccc(C)cc2)o1, the CC50 [2] is reported as > 40 µM (active) and the IC50 (cells [3]) is reported as 26.4 µM (active).

For CCOc1ccccc1CNC(=O)c1cc2oc3ccccc3c2n1C, the CC50 [5] was 18.7 µM (active), the IC50 (Vero [6]) was 4.91 µM (active) and the IC50 (cells [7]) was 9.25 µM (active).

With CCN1C(=O)c2cccc3c(S(=O)(=O)Nc4ccccn4)ccc1c23 the IC50 [8] was > 80 µM (inactive).

With Cc1cc(-c2csc3ncnc(N4CCN(C)CC4)c23)cc(C)c1C the EC50 [9] was 1.19 µM (active).

For COc1ccc(-c2nnc(OCc3nc4ccccc4n3C)c3ccccc23)cc1, the CC50 [5] was 38.6 µM (active) and the IC50 (cells [7]) was 14.7 µM (active).

In the case of CCCCOc1cc(C(=O)NCCN(CC)CC)c2ccccc2n1 [DIBUCAINE HYDROCHLORIDE], the IC50 [10] is reported as 50 µM (inactive).

For CC(=O)NC1=C(Nc2ccc(N(C)C)cc2)C(=O)c2ccccc2C1=O, the CC50 [5] was 15.3 µM (active), the AC50 [11] was 34.5 µM (active) and the IC50 (Vero [6]) was 24.7 µM (active). The EC50 (Protein RecA) was 46.6 µM (active), the CC50 (Vero [4]) was > 25 µM (active) and the IC50 (cells [7]) was 17.5 µM (active).

With COc1cc(CNC2CCCC2)c(Br)cc1OCc1ccccc1 the EC50 [9] was 0.237 µM (active).

For CSc1cccc(NC(=O)CSc2ccccc2)c1, the EC50 [1] was 9.9 µM (active).

In the case of C=CCOc1ccc(/C=C2\SC(=S)N(CCC(=O)O)C2=O)cc1, the EC50 [12] is reported as 5.69 µM (active), the AC50 [13] is reported as 0.337 µM (active) and the IC50 [8] is reported as > 80 µM (inactive).

For COc1ccc(/C=C2\SC(=O)N(CCCC(=O)Nc3ccc(C(=O)O)cc3)C2=O)cc1OC, the IC50 [8] was > 80 µM (inactive).

For O=C1NC(=O)C(CCc2ccncc2)(CCc2ccncc2)C(=O)N1Cc1ccccc1, the EC50 [12] was > 195 µM (not active) and the IC50 [10] was 50 µM (inactive).

For O=C(CSc1nnc(Cc2cccs2)n1-c1ccccc1)NCc1ccc2c(c1)OCO2, the EC50 [1] was 8.23 µM (active).

In the case of COc1ccccc1N1CCN(CC(C)N(C(=O)C2CCCCC2)c2ccccn2)CC1 (stereo not given), the EC50 [9] is reported as 0.335 µM (active).
